Laboratory results as given in PubChem BioAssay (NCI).
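Grown in 96-well plates, cells were treated for 48 hours with each compound at five concentrations. Insufficient inhibition: endpoint recorded as highest concentration tested. Abbreviation: GI50, concentration required for 50% inhibition of growth. The concentration for full growth arrest is given as TGI.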

Legend:
Assay in all cases: DTP human tumour cell line panel, 48 h
[1] = system: 786-0 renal
[2] = system: A498 renal
[3] = system: A549 NSCLC
[4] = system: ACHN renal
[5] = system: BT-549 breast
[6] = system: CAKI-1 renal
[7] = system: CCRF-CEM leukemia
[8] = system: COLO 205 colon
[9] = system: DU-145 prostate
[10] = system: EKVX NSCLC
[11] = system: HCC-2998 colon
[12] = system: HCT-116 colon
[13] = system: HCT-15 colon
[14] = system: HL-60(TB) leukemia
[15] = system: HOP-62 NSCLC
[16] = system: HOP-92 NSCLC
[17] = system: HS 578T breast
[18] = system: HT29 colon
[19] = system: IGROV1 ovarian
[20] = system: K-562 leukemia
[21] = system: KM12 colon
[22] = system: LOX IMVI melanoma
[23] = system: M14 melanoma
[24] = system: MALME-3M melanoma
[25] = system: MCF7 breast
[26] = system: MDA-MB-231 breast
[27] = system: MDA-MB-435
[28] = system: MOLT-4 leukemia
[29] = system: NCI-H226 lung
[30] = system: NCI-H23 lung
[31] = system: NCI-H460 lung
[32] = system: NCI-H522 lung
[33] = system: NCI/ADR-RES ovarian
[34] = system: OVCAR-3 ovarian
[35] = system: OVCAR-4 ovarian
[36] = system: OVCAR-5 ovarian
[37] = system: OVCAR-8 ovarian
[38] = system: PC-3 prostate
[39] = system: RPMI-8226 leukemia
[40] = system: RXF 393 renal
[41] = system: SF-268 CNS
[42] = system: SF-295 CNS
[43] = system: SF-539 CNS
[44] = system: SK-MEL-2 melanoma
[45] = system: SK-MEL-28 melanoma
[46] = system: SK-MEL-5 melanoma
[47] = system: SK-OV-3 ovarian
[48] = system: SN12C renal
[49] = system: SNB-19 CNS
[50] = system: SNB-75 CNS
[51] = system: SR leukemia
[52] = system: SW-620 colon
[53] = system: T-47D breast
[54] = system: TK-10 renal
[55] = system: U251 CNS
[56] = system: UACC-257 melanoma
[57] = system: UACC-62 melanoma
[58] = system: UO-31 renal

How did the GI50 [1] turn out when `CCN1C(C)(C)CC(Oc2ccc(C(=O)Nc3ccc(NC(=O)Nc4cc(C(C)(C)C)on4)cc3)nc2)CC1(C)C` was run?
Its GI50 is 1.66 µM.

What about the TGI [1] of the same compound?
The TGI was 3.52 µM.

And the GI50 [2]?
The GI50 was 1.95 µM.

What about the TGI [2] of the same compound?
The TGI was 11.6 µM.

What about the GI50 [3] of the same compound?
Its GI50 is 2.71 µM.

And the TGI [3]?
The TGI was 7.4 µM.

What about the GI50 [4] of the same compound?
The GI50 was 2.05 µM.

And the TGI [4]?
The TGI was 4.37 µM.

What about the GI50 [5] of the same compound?
Its GI50 is 4.53 µM.

What about the TGI [5] of the same compound?
The TGI was 10.3 µM.

And the GI50 [6]?
The GI50 was 1.98 µM.

What about the TGI [6] of the same compound?
Its TGI is 5.35 µM.

And the GI50 [7]?
Its GI50 is 2.85 µM.

What about the TGI [7] of the same compound?
Its TGI is 7.77 µM.

What about the GI50 [8] of the same compound?
The GI50 was 1.83 µM.

And the TGI [8]?
The TGI was 3.82 µM.

What about the GI50 [9] of the same compound?
Its GI50 is 1.87 µM.

What about the TGI [9] of the same compound?
The TGI was 3.72 µM.

What about the GI50 [10] of the same compound?
The GI50 was 3.6 µM.

And the TGI [10]?
Its TGI is 20.9 µM.

What about the GI50 [11] of the same compound?
The GI50 was 1.9 µM.

And the TGI [11]?
Its TGI is 4.17 µM.

And the GI50 [12]?
Its GI50 is 1.99 µM.

And the TGI [12]?
The TGI was 3.68 µM.

What about the GI50 [13] of the same compound?
Its GI50 is 1.71 µM.

What about the TGI [13] of the same compound?
Its TGI is 3.72 µM.

And the GI50 [14]?
Its GI50 is 2.02 µM.

What about the TGI [14] of the same compound?
The TGI was 4.38 µM.

What about the GI50 [15] of the same compound?
The GI50 was 1.67 µM.

What about the TGI [15] of the same compound?
The TGI was 3.87 µM.

What about the GI50 [16] of the same compound?
The GI50 was 2.38 µM.

And the TGI [16]?
The TGI was 8.09 µM.

And the GI50 [17]?
The GI50 was 1.44 µM.

What about the TGI [17] of the same compound?
Its TGI is 6.06 µM.

What about the GI50 [18] of the same compound?
Its GI50 is 1.58 µM.

And the TGI [18]?
The TGI was 3.86 µM.

And the GI50 [19]?
Its GI50 is 6.86 µM.

And the TGI [19]?
Its TGI is 47.5 µM.

And the GI50 [20]?
The GI50 was 1.69 µM.

What about the TGI [20] of the same compound?
The TGI was 3.76 µM.

What about the GI50 [21] of the same compound?
The GI50 was 2.91 µM.

What about the TGI [21] of the same compound?
The TGI was 9.35 µM.

What about the GI50 [22] of the same compound?
The GI50 was 1.78 µM.

What about the TGI [22] of the same compound?
The TGI was 3.31 µM.

What about the GI50 [23] of the same compound?
The GI50 was 1.91 µM.

And the TGI [23]?
The TGI was 3.63 µM.

And the GI50 [24]?
The GI50 was 1.61 µM.

And the TGI [24]?
The TGI was 3.37 µM.

And the GI50 [25]?
The GI50 was 2.14 µM.

And the TGI [25]?
Its TGI is 5.55 µM.

And the GI50 [26]?
The GI50 was 2.02 µM.

What about the TGI [26] of the same compound?
The TGI was 4.82 µM.

And the GI50 [27]?
The GI50 was 1.82 µM.

And the TGI [27]?
The TGI was 3.47 µM.

What about the GI50 [28] of the same compound?
Its GI50 is 1.93 µM.

And the TGI [28]?
Its TGI is 5.24 µM.

And the GI50 [29]?
Its GI50 is 11.2 µM.

And the TGI [29]?
The TGI was 30.7 µM.

And the GI50 [30]?
Its GI50 is 3.64 µM.

What about the TGI [30] of the same compound?
The TGI was 20.1 µM.

What about the GI50 [31] of the same compound?
Its GI50 is 1.89 µM.

And the TGI [31]?
Its TGI is 3.69 µM.

What about the GI50 [32] of the same compound?
Its GI50 is 1.82 µM.

And the TGI [32]?
Its TGI is 4.23 µM.

What about the GI50 [33] of the same compound?
Its GI50 is 2.48 µM.

And the TGI [33]?
The TGI was over 22.6 µM.

And the GI50 [34]?
The GI50 was 1.78 µM.

What about the TGI [34] of the same compound?
Its TGI is 3.86 µM.

What about the GI50 [35] of the same compound?
The GI50 was 5.23 µM.

What about the TGI [35] of the same compound?
The TGI was 25.9 µM.

And the GI50 [36]?
The GI50 was 2.94 µM.

And the TGI [36]?
The TGI was 11.4 µM.

What about the GI50 [37] of the same compound?
The GI50 was 2.29 µM.

And the TGI [37]?
The TGI was 5.66 µM.

What about the GI50 [38] of the same compound?
The GI50 was 2.88 µM.

And the TGI [38]?
The TGI was 8.82 µM.

And the GI50 [39]?
The GI50 was 1.96 µM.

What about the TGI [39] of the same compound?
Its TGI is 4.72 µM.

What about the GI50 [40] of the same compound?
The GI50 was 1.64 µM.

And the TGI [40]?
Its TGI is 3.36 µM.

What about the GI50 [41] of the same compound?
The GI50 was 2.39 µM.

What about the TGI [41] of the same compound?
Its TGI is 7.71 µM.

What about the GI50 [42] of the same compound?
Its GI50 is 1.67 µM.

What about the TGI [42] of the same compound?
Its TGI is 3.27 µM.

And the GI50 [43]?
Its GI50 is 1.15 µM.

What about the TGI [43] of the same compound?
Its TGI is 2.62 µM.

And the GI50 [44]?
Its GI50 is 2.09 µM.

What about the TGI [44] of the same compound?
The TGI was 4.89 µM.

What about the GI50 [45] of the same compound?
Its GI50 is 1.8 µM.

And the TGI [45]?
The TGI was 3.63 µM.

What about the GI50 [46] of the same compound?
Its GI50 is 1.68 µM.

What about the TGI [46] of the same compound?
Its TGI is 3.22 µM.

And the GI50 [47]?
The GI50 was 6.03 µM.

And the TGI [47]?
The TGI was 15.9 µM.

What about the GI50 [48] of the same compound?
Its GI50 is 1.66 µM.

What about the TGI [48] of the same compound?
The TGI was 3.4 µM.

And the GI50 [49]?
The GI50 was 2.64 µM.

What about the TGI [49] of the same compound?
Its TGI is 11.2 µM.

And the GI50 [50]?
Its GI50 is 1.35 µM.

And the TGI [50]?
The TGI was 3.44 µM.

And the GI50 [51]?
Its GI50 is 2.28 µM.

And the TGI [51]?
The TGI was 4.91 µM.

What about the GI50 [52] of the same compound?
Its GI50 is 2.1 µM.

And the TGI [52]?
Its TGI is 4.37 µM.

And the GI50 [53]?
Its GI50 is 2.34 µM.

And the TGI [53]?
The TGI was 7.2 µM.

What about the GI50 [54] of the same compound?
Its GI50 is 5.49 µM.

And the TGI [54]?
Its TGI is 14 µM.

What about the GI50 [55] of the same compound?
The GI50 was 1.68 µM.

And the TGI [55]?
The TGI was 3.58 µM.

And the GI50 [56]?
Its GI50 is 2.2 µM.

And the TGI [56]?
Its TGI is 4.02 µM.

What about the GI50 [57] of the same compound?
The GI50 was 1.76 µM.

And the TGI [57]?
The TGI was 3.51 µM.

What about the GI50 [58] of the same compound?
The GI50 was 1.67 µM.

What about the TGI [58] of the same compound?
The TGI was 4.25 µM.
